Columns and labels:
[1] = n-Octanol/water partition coefficient, log P of the compound by RP-HPLC analysis; type: physicochemical
[2] = Permeability of the compound assessed as molar fraction in acceptor well at 0.5 mM measured after 2 hrs by PAMPA; type: ADME; conditions: 500 µM
[3] = Permeability of the compound assessed as rate constant for partitioning to the membrane by PAMPA; type: ADME
[4] = Permeability of the compound assessed as molar fraction in donor well at 0.5 mM measured after 2 hrs by PAMPA; type: ADME; conditions: 500 µM
[5] = Permeability of the compound assessed as ratio of Kin to Kout by PAMPA; type: ADME
[6] = Permeability of the compound assessed as molar fraction in donor well at 0.5 mM measured after 16 hrs by PAMPA; type: ADME; conditions: 500 µM
[7] = Permeability of the compound assessed as molar fraction in acceptor well at 0.5 mM measured after 16 hrs by PAMPA; type: ADME; conditions: 500 µM
[8] = Permeability of the compound assessed as molar fraction in membrane at 0.5 mM measured after 2 hrs by PAMPA; type: ADME; conditions: 500 µM
Lipid bilayer = experiment: Binding affinity to POPC liposome membrane assessed as intrinsic dipolar splitting (D) at <1 mg by solid-state 19F NMR spectra analysis
[9] = Permeability of the compound assessed as molar fraction in membrane at 0.5 mM measured after 16 hrs by PAMPA; type: ADME; conditions: 500 µM
[10] = Permeability of the compound assessed as rate constant for coming off the membrane by PAMPA; type: ADME
[11] = n-Octanol/water partition coefficient, log P of the compound by UV-RP-HPLC analysis; type: physicochemical
[12] = Permeability of the compound assessed as molar fraction in donor well at 0.5 mM measured immediately by PAMPA; type: ADME; conditions: 500 µM
[13] = Permeability of the compound by PAMPA

SMILES	logP [1]	permeability [2] [%]	K [3] [×10⁻⁵ /s]	permeability [4] [%]	Ratio [5]	permeability [6] [%]	permeability [7] [%]	permeability [8] [%]	D (Lipid bilayer) [kHz]	permeability [9] [%]	K [10] [×10⁻⁷ /s]	logP [11]	permeability [12] [%]	Papp [13] [×10⁻⁶ cm/s]
OC/C=C/c1ccccc1 [CINNAMIC ALCOHOL]	1.9													
Cc1c(Cl)cccc1Cl	4.29													
CO/C1=C\C(C)=C\[C@@H](C)[C@@H](O)[C@@H](C)C/C(C)=C/C=C/[C@H](OC)[C@@H]([C@@H](C)[C@@H](O)[C@H](C)[C@@]2(O)C[C@@H](O)[C@H](C)[C@@H](C(F)(F)F)O2)OC1=O		-0.5	9.55	52.2	393	16.6	-0.2	48.3	2.9	83.7	2.47	4.54	100	
CO/C1=C\C(C)=C\C[C@@H](O)CC/C(C)=C/C=C/[C@H](OC)[C@@H]([C@@H](C)[C@@H](O)[C@H](C)[C@@]2(O)C[C@@H](O)[C@H](C)[C@@H](C(F)(F)F)O2)OC1=O		2.8	7.08	63.4	143	30.2	6.7	33.7	2.4	63.1	5.91	2.81	100	
Cc1ccc(C(=O)c2ccc(C)cc2)cc1												3.84		
CO/C1=C\C(C)=C\[C@@H](C)[C@@H](O)[C@@H](C)C/C(C)=C/C=C/[C@H](OC)[C@@H]([C@@H](C)[C@@H](O)[C@H](C)[C@@]2(O)C[C@@H](O)[C@H](C)[C@@H](C(C)C)O2)OC1=O [BAFILOMYCIN A1]		4.8	20.7	27.4	1170	11	-1.5	67.9		90.5	3.25	4.74	100	
Cn1c(=O)c2[nH]cnc2n(C)c1=O.O [THEOPHYLLINE]														0.0848

From ChEMBL document CHEMBL4400572, “Small structural alterations greatly influence the membrane affinity of lipophilic ligands: Membrane interactions of bafilomycin A1 and its desmethyl derivative bearing 19F-labeling” (Bioorg Med Chem, 2019)
